Values quoted from earlier work, collected in US10314914B2, “Iodophor composition and methods of use” (Veloce BioPharma, LLC, priority 2015, dated 2019).

Details: 50% solution of DMSO in water

SMILES: C[C@]12CCC(=O)C=C1CC[C@@H]1[C@@H]2[C@@H](O)C[C@@]2(C)[C@H]1CC[C@]2(O)C(=O)CO [hydrocortisone]
- rate of penetration: markedly enhanced
